According to patent US11466025B2, “Thienopyridine derivatives containing unsaturated aliphatic olefinic bond, preparation method and use thereof” (Tianjin Institute of Pharmaceutical Research Co., Ltd., priority 2017, dated 2022):
Read-outs that look alike come from different tables or passages of the source.

Tests used:
[1] = 1 μM
Procedure: Plasma samples (double sample) containing 1 μM of the compounds of the present invention, clopidogrel hydrogen sulfate (LBGL), 2-oxo product (2-Oxo) were prepared from human blank plasma, and incubated at 37° C. 50 μL of the above incubated plasma samples were taken at different time points, and 100 μL of precipitant (acetonitrile:methanol=7:3) and 50 μL of internal standard were added. The mixture was vortexed for 1 min and centrifuged for 10 min. 100 μL of the supernatant was taken into an inner inserted tube, centrifuged for 5 min, and injected for LC-MS/MS analysis.
Preparation of blank control sample (PPT-0): 100 μL of frozen human blank plasma was taken, to which 195 μL of acetonitrile and 100 μL of internal standard were added, followed by 5 μL of the compound of the present invention, clopidogrel or 2-oxo product (20 μM). The mixture was vortexed for 1 min and centrifuged for 10 min. 100 μL of the supernatant was taken into an inner inserted tube, centrifuged for 5 min, and injected for LC-MS/MS analysis.

[2] = Stability of the compounds under high temperature, high humidity and light (influence factors, HPLC); assay type: physicochemical
Procedure: Study on the Stability of the Compounds:
The stability of the compound is investigated under the conditions of high temperature, high humidity and light. The testing conditions for high performance liquid chromatography (HPLC) are as follows:
Instrument: high performance liquid chromatography;
Column: Inertsil C8-3, 150 mm×4.6 mm, 5 μm;
Mobile phase A: acetonitrile; mobile phase B: 5 mM ammonium dihydrogen phosphate;
Detection wavelength: 220 nm;
Column temperature: 35° C.;
Sample chamber temperature: 25° C.;
Column: Agilent Poroshell 120 EC-C18, 100 mm×4.6 mm, 2.7 μm;
Column temperature: 30° C.;
Other conditions are the same as that in Method 1.
Samples relating to Compound I-2 were tested using Method 2 and other samples were tested using Method 1. The test results of the influence factors are shown in Table 14, and the test results of the light-avoidance stability test are shown in Table 15.

[3] = system: beagle dogs; test: Safety evaluation in multiple dosing (14 days); assay type: in vivo; conditions: for ECG examinations, hematological tests and serum biochemical tests: day 7 and 14
Procedure: Safety Evaluation of Compounds I-1 and I-2 in Multiple Dosing:
The test consisted of a physiological control group, a solvent control group, and two administration groups, with 4 animals in each group, half of which were male and the other half of which were female. Two dose groups, 100 mg/kg group and 300 mg/kg group, were set for the test compounds, to which the test compounds at doses of 100 mg/kg and 300 mg/kg were intragastrically administered respectively over 14 days. The solvent control group was administered with an equal volume of the blank solvent. Animals were daily observed for various conditions during the test. ECG examinations were performed before administration, and 7 and 14 days after administration. Hematological and blood biochemical tests were performed before administration and 7 and […] after administration.

[4] = system: platelet aggregation induced by ADP; test: Test of inhibitory effect of compounds on platelet aggregation in rats (ex vivo, ADP-induced, after intragastric administration); set-up: species or system SD rats; conditions: rats; for Inhibition rate (%): platelet aggregation, control = 100%; for Aggregation rate (%): 2 h after administration, ADP 20 uM
Procedure: Test of Inhibitory Effect of Compounds on Platelet Aggregation in Rats Healthy male SD rats were selected and randomly divided into solvent control group, positive drug control group and test compound group. Intragastric administration was carried out, with the administration volume being 10 ml/kg˜bw. […] The platelet count was adjusted to 5×10^8 cells/ml with PPP.

[5] = 5 days, High temperature 60° C.
[6] = 10 days, High temperature 60° C.
[7] = 30 days, High temperature 60° C.
[8] = intragastric 100 mg/kg over 14 days
[9] = intragastric 300 mg/kg over 14 days

## C/C=C/C=C/C(=O)Oc1cc2c(s1)CCN([C@H](C(=O)OC)c1ccccc1Cl)C2 [Compound I-2, Methyl (S)-2-(2-chlorophenyl)-2-(2-((2E,4E)-2,4-hexadienoyloxy)-6,7-dihydrothieno[3,2-c]pyridin-5(4H)-yl)-acetate]
[1]; 0 min
  2-Oxo metabolite concentration in human plasma: 0.0192 µM
  2-Oxo metabolite in human plasma, %: 1.74%
  Concentration of incubated compound in human plasma: 1.11 µM
  Incubated compound in human plasma, %: 100%
[1]
  Generation of 2-oxo (2-Oxo) product in human plasma: rapidly generate 2-oxo products
[1]; 5 min
  2-Oxo metabolite concentration in human plasma: 0.0246 µM
  2-Oxo metabolite in human plasma, %: 2.23%
  Concentration of incubated compound in human plasma: 1.03 µM
  Incubated compound in human plasma, %: 93.5%
[1]; 10 min
  2-Oxo metabolite concentration in human plasma: 0.0319 µM
  2-Oxo metabolite in human plasma, %: 2.89%
  Concentration of incubated compound in human plasma: 1.03 µM
  Incubated compound in human plasma, %: 92.8%
[1]; 20 min
  2-Oxo metabolite concentration in human plasma: 0.0449 µM
  2-Oxo metabolite in human plasma, %: 4.06%
  Concentration of incubated compound in human plasma: 1.07 µM
  Incubated compound in human plasma, %: 97.1%
[1]; 30 min
  2-Oxo metabolite concentration in human plasma: 0.0493 µM
  2-Oxo metabolite in human plasma, %: 4.46%
  Concentration of incubated compound in human plasma: 0.957 µM
  Incubated compound in human plasma, %: 86.6%
[1]; 45 min
  2-Oxo metabolite concentration in human plasma: 0.0522 µM
  2-Oxo metabolite in human plasma, %: 4.72%
  Concentration of incubated compound in human plasma: 0.927 µM
  Incubated compound in human plasma, %: 83.9%
[1]; 60 min
  2-Oxo metabolite concentration in human plasma: 0.0521 µM
  2-Oxo metabolite in human plasma, %: 4.71%
  Concentration of incubated compound in human plasma: 0.849 µM
  Incubated compound in human plasma, %: 76.8%
[1]; 90 min
  2-Oxo metabolite concentration in human plasma: 0.0481 µM
  2-Oxo metabolite in human plasma, %: 4.35%
  Concentration of incubated compound in human plasma: 0.705 µM
  Incubated compound in human plasma, %: 63.8%
[1]; 120 min
  2-Oxo metabolite concentration in human plasma: 0.0457 µM
  2-Oxo metabolite in human plasma, %: 4.14%
  Concentration of incubated compound in human plasma: 0.695 µM
  Incubated compound in human plasma, %: 62.9%
[1]; 150 min
  2-Oxo metabolite concentration in human plasma: 0.0445 µM
  2-Oxo metabolite in human plasma, %: 4.03%
  Concentration of incubated compound in human plasma: 0.516 µM
  Incubated compound in human plasma, %: 46.7%
[1]; 180 min
  2-Oxo metabolite concentration in human plasma: 0.0388 µM
  2-Oxo metabolite in human plasma, %: 3.51%
  Concentration of incubated compound in human plasma: 0.475 µM
  Incubated compound in human plasma, %: 43.0%
[1]; 240 min
  2-Oxo metabolite concentration in human plasma: 0.0331 µM
  2-Oxo metabolite in human plasma, %: 3.00%
  Concentration of incubated compound in human plasma: 0.332 µM
  Incubated compound in human plasma, %: 30.0%
[1]; 300 min
  2-Oxo metabolite concentration in human plasma: 0.0294 µM
  2-Oxo metabolite in human plasma, %: 2.66%
  Concentration of incubated compound in human plasma: 0.231 µM
  Incubated compound in human plasma, %: 20.9%
[1]; 360 min
  2-Oxo metabolite concentration in human plasma: 0.0236 µM
  2-Oxo metabolite in human plasma, %: 2.14%
  Concentration of incubated compound in human plasma: 0.164 µM
  Incubated compound in human plasma, %: 14.8%
[2]; 0 day, 0point
  Chromatographic purity %: 98.879%
  Isomer %: 0.705%
[2]; 5 days, High humidity RH92.5%
  Chromatographic purity %: 98.897%
  Isomer %: 0.707%
[2]; [5]
  Chromatographic purity %: 98.840%
  Isomer %: 0.696%
[2]; 5 days, Light 4500 ± 500 LX
  Chromatographic purity %: 98.853%
  Isomer %: 0.699%
[2]; 10 days, High humidity RH92.5%
  Chromatographic purity %: 98.882%
  Isomer %: 0.708%
[2]; [6]
  Chromatographic purity %: 98.930%
  Isomer %: 0.692%
[2]; 10 days, Light 4500 ± 500 LX
  Chromatographic purity %: 98.756%
  Isomer %: 0.712%
[2]; 30 days, High humidity RH92.5%
  Chromatographic purity %: 98.885%
  Isomer %: 0.704%
[2]; [7]
  Chromatographic purity %: 98.936%
  Isomer %: 0.683%
[2]; 30 days, Light 4500 ± 500 LX
  Chromatographic purity %: 95.099%
  Isomer %: 0.695%
[3]; continuous intragastrical administration for 14 days
  Drug-related toxicity (appearance, mental activity, appetite, hematological, blood biochemical, ECG): no significant drug-related toxicity
[3]; [8]
  Activities, mental condition and diet: normal activities, good mental condition, and normal diet
  ECG examinations, hematological tests and serum biochemical tests: no obvious abnormalities
[3]; [9]
  Activities, mental condition and diet: normal activities, good mental condition, and normal diet
  ECG examinations, hematological tests and serum biochemical tests: no obvious abnormalities
[4]; Rattus norvegicus, inhibition of ADP-induced platelet aggregation, oral administration, read-out: ED50
  ED50: 1.58 mg/kg
[4]; intragastric 0.75 mg/kg
  Inhibition rate (%): 7.0%
  Aggregation rate (%): 55.8 ± 13.9%
[4]; intragastric 1.5 mg/kg
  Inhibition rate (%): 50.8%
  Aggregation rate (%): 29.6 ± 8.7 %
[4]; intragastric 3 mg/kg
  Inhibition rate (%): 85.8%
  Aggregation rate (%): 8.5 ± 9.4 %
